system: GM01896 cells (MPS II dermal fibroblasts); test: Assay 1: MPS cellular assay, MPS II (heparan sulfate disaccharide biomarkers by LC-MS); assay type: cell-based, human; conditions: Assay 1 for MPS II, heparan sulfate disaccharide biomarkers (I2a4, I2a6, I2S0 and/or I2S6), read-out: IC50 Range
In short: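 MPS II patient dermal fibroblasts (GM01896) treated with compound at ≤30 μM for 4 to 21 days. Heparan sulfate GAGs isolated by anion exchange, digested with heparinases I-III, aniline-tagged against [13C6]aniline standards and quantified by LC-MS; IC50 from curve fitting. Viability monitored by alamar blue or ATP.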

| SMILES | IC50 [nM] |
| --- | --- |
| CN(C)CCn1cnc2cc(-c3cc(Nc4ccc(Cl)cc4)nc(N4CCOCC4)n3)ccc21 [[2-(5-{6-[(4-chlorophenyl)amino]-2-morpholin-4-ylpyrimidin-4-yl}benzimidazolyl)ethyl]dimethylamine] | 1000 to 5000 |
| Cc1nc2ccc(-c3cc(Nc4ccc(Cl)cc4)nc(N4CCOCC4)n3)cc2n1CCN(C)C [[2-(6-{6-[(4-chlorophenyl)amino]-2-morpholin-4-ylpyrimidin-4-yl}-2-methylbenzimidazolyl)ethyl]dimethylamine] | 1000 to 5000 |
| Cc1nn(CCN(C)C)c2cc(-c3cc(Nc4ccc(Cl)cc4)nc(N4CCOCC4)n3)ccc12 [[2-(6-{6-[(4-chlorophenyl)amino]-2-morpholin-4-ylpyrimidin-4-yl}-3-methyl(1H-indazoly))ethyl]dimethylamine] | 1000 to 5000 |
| CN(C)CCn1cnc2ccc(-c3cc(Nc4ccc(Cl)cc4)nc(N4CCOCC4)n3)cc21 [[2-(6-{6-[(4-chlorophenyl)amino]-2-morpholin-4-ylpyrimidin-4-yl}benzimidazolyl)ethyl]dimethylamine] | 500 to 1000 |
| CN(C)CCCn1cnc2cc(-c3cc(Nc4ccc(Cl)cc4)nc(N4CCOCC4)n3)ccc21 [[3-(5-{6-[(4-chlorophenyl)amino]-2-morpholin-4-ylpyrimidin-4-yl}benzimidazolyl)propyl]dimethylamine] | 500 to 1000 |
| Cc1nc2ccc(-c3cc(Nc4ccc(Cl)cc4)nc(N4CCOCC4)n3)cc2n1CCCN(C)C [[3-(6-{6-[(4-chlorophenyl)amino]-2-morpholin-4-ylpyrimidin-4-yl}-2-methylbenzimidazolyl)propyl]dimethylamine] | 500 to 1000 |
| CN(C)CCCn1cnc2ccc(-c3cc(Nc4ccc(Cl)cc4)nc(N4CCOCC4)n3)cc21 [[3-(6-{6-[(4-chlorophenyl)amino]-2-morpholin-4-ylpyrimidin-4-yl}benzimidazolyl)propyl]dimethylamine] | 500 to 1000 |

same assay, conditions: Homo sapiens, Fibroblast, Assay 1 for MPS II, heparan sulfate disaccharide biomarkers (I2a4, I2a6, I2S0 and/or I2S6), read-out: IC50 Range

| SMILES | IC50 [nM] |
| --- | --- |
| CNC(=O)c1ccc(Nc2cc(-c3ccc4c(cnn4CCN4CCOCC4)c3)nc(N3CCOCC3)n2)cc1 [N-methyl[4-({2-morpholin-4-yl-6-[1-(2-morpholin-4-ylethyl)(1H-indazol-5-yl)]pyrimidin-4-yl}amino)phenyl]carboxamide] | 500 to 1000 |
| CNC(=O)c1ccc(Nc2cc(-c3ccc4cnn(CCN5CCOCC5)c4c3)nc(N3CCOCC3)n2)cc1 [N-methyl[4-({2-morpholin-4-yl-6-[1-(2-morpholin-4-ylethyl)(1H-indazol-6-yl)]pyrimidin-4-yl}amino)phenyl]carboxamide] | 500 to 1000 |
| CNC(=O)c1ccc(Nc2cc(-c3ccc4c(c3)ncn4CCN3CCOCC3)nc(N3CCOCC3)n2)cc1 [N-methyl[4-({2-morpholin-4-yl-6-[1-(2-morpholin-4-ylethyl)benzimidazol-5-yl]pyrimidin-4-yl}amino)phenyl]carboxamide] | 500 to 1000 |
| CNC(=O)c1ccc(Nc2cc(-c3ccc4ncn(CCN5CCOCC5)c4c3)nc(N3CCOCC3)n2)cc1 [N-methyl[4-({2-morpholin-4-yl-6-[1-(2-morpholin-4-ylethyl)benzimidazol-6-yl]pyrimidin-4-yl}amino)phenyl]carboxamide] | 500 to 1000 |
| CNC(=O)c1ccc(Nc2cc(-c3ccc4cnn(CCN5CCCC5)c4c3)nc(N3CCOCC3)n2)cc1 [N-methyl[4-({2-morpholin-4-yl-6-[1-(2-pyrrolidinylethyl)(1H-indazol-6-yl)]pyrimidin-4-yl}amino)phenyl]carboxamide] | 500 to 1000 |
| CNC(=O)c1ccc(Nc2cc(-c3ccc4ncn(CCN5CCCC5)c4c3)nc(N3CCOCC3)n2)cc1 [N-methyl[4-({2-morpholin-4-yl-6-[1-(2-pyrrolidinylethyl)benzimidazol-6-yl]pyrimidin-4-yl}amino)phenyl]carboxamide] | 1000 to 5000 |
| CNC(=O)c1ccc(Nc2cc(-c3ccc4c(cnn4CCCN4CCOCC4)c3)nc(N3CCOCC3)n2)cc1 [N-methyl[4-({2-morpholin-4-yl-6-[1-(3-morpholin-4-ylpropyl)(1H-indazol-5-yl)]pyrimidin-4-yl}amino)phenyl]carboxamide] | 1000 to 5000 |
| CNC(=O)c1ccc(Nc2cc(-c3ccc4cnn(CCCN5CCOCC5)c4c3)nc(N3CCOCC3)n2)cc1 [N-methyl[4-({2-morpholin-4-yl-6-[1-(3-morpholin-4-ylpropyl)(1H-indazol-6-yl)]pyrimidin-4-yl}amino)phenyl]carboxamide] | < 500 |
| CNC(=O)c1ccc(Nc2cc(-c3ccc4c(c3)ncn4CCCN3CCOCC3)nc(N3CCOCC3)n2)cc1 [N-methyl[4-({2-morpholin-4-yl-6-[1-(3-morpholin-4-ylpropyl)benzimidazol-5-yl]pyrimidin-4-yl}amino)phenyl]carboxamide] | 1000 to 5000 |
| CNC(=O)c1ccc(Nc2cc(-c3ccc4ncn(CCCN5CCOCC5)c4c3)nc(N3CCOCC3)n2)cc1 [N-methyl[4-({2-morpholin-4-yl-6-[1-(3-morpholin-4-ylpropyl)benzimidazol-6-yl]pyrimidin-4-yl}amino)phenyl]carboxamide] | 1000 to 5000 |
| CNC(=O)c1ccc(Nc2cc(-c3ccc4cnn(CCCN5CCCC5)c4c3)nc(N3CCOCC3)n2)cc1 [N-methyl[4-({2-morpholin-4-yl-6-[1-(3-pyrrolidinylpropyl)(1H-indazol-6-yl)]pyrimidin-4-yl}amino)phenyl]carboxamide] | < 500 |
| CNC(=O)c1ccc(Nc2cc(-c3ccc4c(c3)ncn4CCCN3CCCC3)nc(N3CCOCC3)n2)cc1 [N-methyl[4-({2-morpholin-4-yl-6-[1-(3-pyrrolidinylpropyl)benzimidazol-5-yl]pyrimidin-4-yl}amino)phenyl]carboxamide] | 500 to 1000 |
| CN(C)CCn1ncc2ccc(-c3cc(Nc4ccc(Cl)cc4)nc(N4CCOCC4)n3)cc21 [[2-(6-{6-[(4-chlorophenyl)amino]-2-morpholin-4-ylpyrimidin-4-yl}(1H-indazolyl))ethyl]dimethylamine] | 500 to 1000 |
| CN(C)CCn1cc2ccc(-c3cc(Nc4ccc(Cl)cc4)nc(N4CCOCC4)n3)cc2n1 [[2-(6-{6-[(4-chlorophenyl)amino]-2-morpholin-4-ylpyrimidin-4-yl}(2H-indazol-2-yl))ethyl]dimethylamine] | 500 to 1000 |
| CN(C)CCc1nn(C)c2cc(-c3cc(Nc4ccc(Cl)cc4)nc(N4CCOCC4)n3)ccc12 [[2-(6-{6-[(4-chlorophenyl)amino]-2-morpholin-4-ylpyrimidin-4-yl}-1-methyl(1H-indazol-3-yl))ethyl]dimethylamine] | 500 to 1000 |
| Cc1c2ccc(-c3cc(Nc4ccc(Cl)cc4)nc(N4CCOCC4)n3)cc2nn1CCN(C)C [[2-(6-{6-[(4-chlorophenyl)amino]-2-morpholin-4-ylpyrimidin-4-yl}-3-methyl(2H-indazol-2-yl))ethyl]dimethylamine] | 1000 to 5000 |
| CN(C)CCc1nc2cc(Cc3cc(Nc4ccc(Cl)cc4)nc(N4CCOCC4)n3)ccc2[nH]1 [[2-(6-{6-[(4-chlorophenyl)amino]-2-morpholin-4-ylpyrimidin-4-yl}methylbenzimidazol-2-yl)ethyl]dimethylamine] | < 500 |
| CN(C)CCCn1ncc2ccc(-c3cc(Nc4ccc(Cl)cc4)nc(N4CCOCC4)n3)cc21 [[3-(6-{6-[(4-chlorophenyl)amino]-2-morpholin-4-ylpyrimidin-4-yl}(1H-indazolyl))propyl]dimethylamine] | 1000 to 5000 |
| Cc1nn(CCCN(C)C)c2cc(-c3cc(Nc4ccc(Cl)cc4)nc(N4CCOCC4)n3)ccc12 [[3-(6-{6-[(4-chlorophenyl)amino]-2-morpholin-4-ylpyrimidin-4-yl}-3-methyl(1H-indazolyl))propyl]dimethylamine] | 500 to 1000 |
| Cn1cc(-c2ccc(Nc3cc(-c4ccc5cnn(C)c5c4)nc(N4CCOCC4)n3)cc2)nn1 [[4-(1-methyl(1,2,3-triazol-4-yl))phenyl][6-(1-methyl(1H-indazol-6-yl))-2-morpholin-4-ylpyrimidin-4-yl]amine] | 1000 to 5000 |
| Cn1ccnc1-c1ccc(Nc2cc(-c3ccc4c(CCN5CCOCC5)nn(C)c4c3)nc(N3CCOCC3)n2)cc1 [[4-(1-methylimidazol-2-yl)phenyl]{6-[1-methyl-3-(2-morpholin-4-ylethyl)(1H-indazol-6-yl)]-2-morpholin-4-ylpyrimidin-4-yl}amine] | 500 to 1000 |
| Cc1nncn1-c1ccc(Nc2cc(-c3ccc4cnn(C)c4c3)nc(N3CCOCC3)n2)cc1 [[4-(3-methyl(1,2,4-triazol-4-yl))phenyl][6-(1-methyl(1H-indazol-6-yl))-2-morpholin-4-ylpyrimidin-4-yl]amine] | 500 to 1000 |
| Cc1nn(-c2ccc(Nc3cc(-c4ccc5c(C)nn(C)c5c4)nc(N4CCOCC4)n3)cc2)nc1C [[4-(4,5-dimethyl(1,2,3-triazol-2-yl))phenyl][6-(1,3-dimethyl(1H-indazol-6-yl))-2-morpholin-4-ylpyrimidin-4-yl]amine] | 1000 to 5000 |
| Cn1ncc2ccc(-c3cc(Nc4ccc(-c5[nH]ncc5F)cc4)nc(N4CCOCC4)n3)cc21 [[4-(4-fluoropyrazol-5-yl)phenyl][6-(1-methyl(1H-indazol-6-yl))-2-morpholin-4-ylpyrimidin-4-yl]amine] | 1000 to 5000 |
| Cc1cnn(-c2ccc(Nc3cc(-c4ccc5cnn(C)c5c4)nc(N4CCOCC4)n3)cc2)n1 [[4-(4-methyl(1,2,3-triazol-2-yl))phenyl][6-(1-methyl(1H-indazol-6-yl))-2-morpholin-4-ylpyrimidin-4-yl]amine] | < 500 |
| Cc1cnn(-c2ccc(Nc3cc(-c4ccc5c(CCN6CCOCC6)nn(C)c5c4)nc(N4CCOCC4)n3)cc2)n1 [[4-(4-methyl(1,2,3-triazol-2-yl))phenyl]{6-[1-methyl-3-(2-morpholin-4-ylethyl)(1H-indazol-6-yl)]-2-morpholin-4-ylpyrimidin-4-yl}amine] | < 500 |
| Cn1cnnc1-c1ccc(Nc2cc(-c3ccc4cnn(C)c4c3)nc(N3CCOCC3)n2)cc1 [[4-(4-methyl(1,2,4-triazol-3-yl))phenyl][6-(1-methyl(1H-indazol-6-yl))-2-morpholin-4-ylpyrimidin-4-yl]amine] | 1000 to 5000 |

Source: US20190151312A1, “HEPARAN SULFATE BIOSYNTHESIS INHIBITORS FOR THE TREATMENT OF DISEASES” (BioMarin Pharmaceutical Inc., priority 2014, published 2019)
